Measured values as given in US5091169A, “Dipyridoxyl phosphate NMRI contrast agent compositions” (priority 1989, dated 1992).

Assay: Potentiometric titration of DPDP (ligand proton titration)
Assay type: physicochemical
Details: pH of 3 and above
Excerpt: The compound DPDP was studied potentiometrically from pH 11.2 to 2.0. Data sets were collected on a custom-built automatic potentiometric titration apparatus composed of a METROHM 655 DOSIMAT automatic buret, a FISHER ACCUMET pH meter with a CORNING calomel combination electrode, a custom-blown water jacketed titration cell, a BRINKMAN LAUDA K-2/R constant temperature bath and a COMMODORE 64 computer. The BASIC computer program TITRATOR (Harris, W. et al, J.Am.Chem.Soc. 101:6534 (1979)) runs the apparatus. Data analysis was performed on an IBM-AT computer using the least squares program, BETA (Harris, W. et al, supra), and the data analysis program, HANDNBAR (Harris, W. et al, supra). The titrants were standardized by phenophthalein titration as follows: KOH was calibrated against potassium hydrogen phthalate (a primary standard), and HCl solutions were calibrated against the KOH standard. The Mn(II)Cl2 solution was standardized with an EDTA titration using Erichrome Black T as the indicator. All solutions were made from distilled, deionized water that was further purified on a MILLI-Q cartridge system, degassed, and then kept under an atmosphere of argon which had been scrubbed for CO2 and O2. Additions of EDTA and Mn(II) solutions were performed using calibrated GILMOT pipets. […]

With `Cc1ncc(COP(=O)(O)O)c(CN(CCN(CC(=O)O)Cc2c(COP(=O)(O)O)cnc(C)c2O)CC(=O)O)c1O` [DPDP, N,N'-bis(3-hydroxy-2-methyl-5-phosphonomethyl-4-pyridylmethyl)ethylenediamine-N,N'-diacetic acid] the “ligand charge / deprotonation state” value was “anionic and possesses deprotonated metal binding sites”.
